Tested on: ascites cells obtained during an operation of a patient with ovarian cancer (serous adenocarcinoma)
Assay: Live-cell fluorescence imaging of cells in peritoneal washing, ovarian cancer patient (Example 1)
Assay type: cell-based, human
Settings: 100 μM 2-NBDLG and 20 μM 2TRLG in KRB, 5 minutes 37° C., FIG. 2B
Description: Immediately after the start of laparotomy for ovarian cancer (serous adenocarcinoma), the peritoneal cavity was washed with physiological saline for the purpose of collecting an ascitic fluid. A surplus portion of the resulting peritoneal washing was transferred into a 50 mL centrifuge tube. Subsequently, it was centrifuged at 1500 G for 2 minutes at room temperature, the supernatant was removed by decantation, and the pellet was dispersed by adding 2 mL of Krebs Ringer Buffer (KRB solution, see below) to obtain an ascites-cell suspension.
NaCl 129.0 mM, KCl 4.75 mM, KH2PO41.19 mM, MgSO4.7H2O 1.19 mM, CaC12.2H2O 1.0 mM, NaHCO35.02 mM, D-Glucose 5.6 mM, HEPES 10.0 mM (an adequate amount of 1M NaOH was added to adjust the pH to 7.35). […]
For fluorescence observation, observation and image acquisition were performed as follows after mounting the glass pate on a glass-slide holder dedicated for an all-in-one fluorescence microscope BZ-X700 (Keyence Corporation). […] Bright field images and fluorescence images of the target cells were taken at a high magnification of 40× or 100×. Commercially available filters for BZ-X700 were used for fluorescence detection. A GFP filter for BZ-X (green channel, OP-87763, Ex 470/40 nm, Em 525/50 nm, DM 495 nm) was used for fluorescence observation of 2-NBDLG. […]

O=C[C@@H](Nc1ccc([N+](=O)[O-])c2nonc12)[C@H](O)[C@@H](O)[C@@H](O)CO [2-NBDLG, 2-[N-(7-nitrobenz-2-oxa-1,3-diazole-4-yl)amino]-2-deoxy-L-glucose]
fluorescence from 2-NBDLG (green wavelength region) (apparent peritoneal mesothelial cells): do not show fluorescence
fluorescence from 2-NBDLG (green wavelength region) (morphologically suspected cancer cells): intense fluorescence

Source: patent publication US20170315129A1, “CANCER CELL DETECTION METHOD USING LIVING BODY-DERIVED CELLS OF BIOLOGICAL ORIGIN” (Hirosaki University, priority 2014, published 2017)
